`CCCCC1OC(=O)c2cc([N+](=O)[O-])ccc21` (configuration not stated): the logP (commonly a log measure of how a compound divides between an organic and an aqueous phase) amounted to 2.92.

As to `O=C(O)Cc1ccc(S(=O)(=O)F)cc1`, the log partition coefficient (logP) turned out to be 1.86.

In the case of `[O-][n+]1ccc(Cl)c2ccccc21`, the logP is 1.08.

Consider `CC(C)(Cc1ccccc1)NC(=O)N(CCCl)N=O`, for which the logP was determined as 3.73.

The compound `CCN(CC)CCNC(=O)c1cc(Br)ccc1OC` gave a logP of 3.2.

Take `Clc1cc(Cl)c(N=C2NCCN2)cc1Cl`: the logP is 2.11.

For the compound `CN(C)C(=O)c1ccsc1`, the logP is 0.55.

The compound `CSc1nncc(=O)n1N` yielded a lipophilicity (logP) of 0.38.

With `CN1C(=Nc2ncc([N+](=O)[O-])s2)NCC1(C)C`, the logP was found to be 2.35.

For the compound `CSc1ccc2c(c1)C(c1ccccc1)=NCC(=O)N2C`, the logP worked out at 2.95.

The compound `CCc1cc(OP(=O)(OC)OC)ccc1[N+](=O)[O-]` returned a logP of 2.19.

Compound `CCCCCCCCCCCCCCCC[n+]1ccc(C)cc1C.[I-]` gave a logP of 3.9.

`Cc1cccc(C)c1C(=N)c1ccccc1` returned a log partition coefficient (logP) of 3.53.

`O=C(NN=Cc1ccccc1)c1ccccc1` returned a lipophilicity (logP) of 2.56.

The compound `COC(=O)C(C#N)=NNc1ccc(SC(F)(F)F)cc1` returned a logP of 4.3.

For `Cc1cnc2ccccn2c1=O`, the logP was 0.77.

Compound `O=[N+]([O-])c1nccn1C1SC(CO)C(O)C(O)C1O` (configuration not stated) came in with a logP of -0.66.

Consider `CC12CCC(=O)C=C1CCC1C3CCC4(CCC(=O)O4)C3(C)CC3OC312` (configuration not stated), for which the logP is 1.89.

For `Cc1cc(C)cc(NC(=O)N(C)C)c1`, the logP turned out to be 1.9.

On to `Cc1ccccc1OC1OC(CO)C(O)C(O)C1O` (configuration not stated), for which the logP was -0.16.

`CC(C)c1nnc(N)o1`: the logP is 0.2.

As to `CN(C)CCc1ccsc1`, the logP stood at 1.94.

`CCN(CC)c1nc(N(C)C)nc(N(C)C)n1` showed a logP of 3.45.

Take `CCCCCCCCCC[n+]1ccccc1.[Br-]`: the logP is -0.72.

In turn, `CC(=O)N(C)c1c(I)c(C(=O)NCC(O)CO)c(I)c(C(=O)NCC(O)CO)c1I` (configuration not stated) came in with a logP of -2.06.

Take `CCCCCCCCCCCC[n+]1ccc(C)c(C)c1.[I-]`: the logP amounted to 1.75.

`COc1ccc(C2=NCC(=O)N(C)c3ccc(Cl)cc32)cc1`: the logP came to 3.15.

Take `COc1cc(Cc2cnc(N)nc2N)cc2c1OCO2`: the logP came out at 1.38.

The compound `Cc1ccccc1C1=NCC(=O)Nc2ccc(Cl)cc21` gave a logP of 3.12.

Compound `Cc1ccc(NC2=NCCN2)c(C)c1` came in with a logP of 1.79.

The compound `CCC1(CC)OC(=O)c2ccccc21` yielded a logP of 2.69.

In the case of `CC(=O)c1ccccc1NC(=O)C(Cl)Cl`, the logP was 2.65.

Turning to `Nc1nc(=O)c2ccccc2[nH]1`, the logP turned out to be 0.6.

In turn, `O=[N+]([O-])C=Cc1cccc(O)c1` yielded a logP of 2.07.

With `COc1cc(C)n(-c2nc(C)cc(C)n2)n1`, the logP worked out at 1.82.

In turn, `CCCCCC(=O)N[C@@H]1C(=O)N2[C@@H]1SC(C)(C)[C@@H]2C(=O)O` registered a logP of 2.37.

Compound `COc1cc(CC(=O)O)ccc1OCCCC(C)C` returned a logP of 3.3.

`O=[N+]([O-])c1ccc(OCCn2ccnc2)cc1` came in with a logP of 1.69.

`CNC(=O)C(Cc1ccccc1)NC(C)=O` (configuration not stated) came in with a logP of 0.4.

Compound `CCOc1cc(Cc2cnc(N)nc2N)cc(OCC)c1C(=O)CS(C)(=O)=O` showed a logP of 0.79.

`NC(=O)CCCCn1nnc2ccccc21` yielded a lipophilicity (logP) of 0.58.

`CC(C)NC(=O)C=Cc1ncc([N+](=O)[O-])s1`: the logP worked out at 1.76.

`COc1cc(Cc2cnc(N)nc2N)cc(OC)c1N` had a logP of 0.83.

As to `Cc1cc(C)c(NC2=NCCN2)c(Cl)c1`, the logP stood at 2.1.

In the case of `CCNC1=NC(=O)C(=Cc2ccc([N+](=O)[O-])o2)S1`, the logP is 1.16.

The compound `CCC1=Nc2cc(Cl)ccc2S(=O)(=O)N1` had a logP of 1.61.

In the case of `O=c1[nH]nc(CSc2ccccc2)[nH]1`, the logP stood at 1.46.

`O=C(COc1ccccc1)N1CCCCC1`: the logP was 1.81.

`CC(=O)c1ccc(NS(=O)(=O)C(F)(F)F)cc1`: the logP stood at 2.83.

`CNC(=O)O/N=C/C(C)(C)S(C)(=O)=O` displayed a logP of -0.57.

As for `CNC=CC(C)c1ccccn1` (configuration not stated), the log partition coefficient (logP) came out at 1.13.

`FC1C(Cl)C(Cl)C(Cl)C(Cl)C1Br` (configuration not stated) gave a logP of 3.28.

`CNC(=O)ON=Cc1cccc(Oc2ccccc2)c1` showed a logP of 3.12.

`COc1cccc(C2=NCC(=O)Nc3ccc(Cl)cc32)c1`: the logP is 3.14.

`NC1CC2CC1c1ccc(C(F)(F)F)cc12` (configuration not stated) displayed a logP of 2.91.

The compound `CC1=Nc2ccc(C(F)(F)F)cc2S(=O)(=O)N1` had a logP of 1.51.

Consider `Cc1nnc(-c2ccccn2)o1`, for which the logP is 0.46.

In turn, `Clc1ccc(-c2cc(Cl)ccc2Cl)cc1` yielded a logP of 5.69.

For `CCOc1cc(Cc2cnc(N)nc2N)cc(OCC)c1N`, the logP was 1.69.

Compound `O=[N+]([O-])c1cc2nc(C(F)(F)F)[nH]c2cc1Cl` returned a logP of 3.21.

For `Clc1ccc(Cl)c(-c2cc(Cl)cc(Cl)c2Cl)c1`, the logP was 6.79.

On to `CCCCOc1cccc(N2C(N)=NC(N)=NC2(C)C)c1`, for which the logP worked out at 2.03.

In turn, `COC(=O)C(C#N)=NNc1ccc(C(F)(F)F)cc1` registered a log partition coefficient (logP) of 3.79.

As to `CSc1cccc(N=NN(C)C)c1`, the logP came to 2.98.

`Cc1cc(C)nc(-n2c(C)cc(=O)n2C)n1` had a logP of 0.51.

Regarding `CC1(C)CCCC(C)(C)N1N=O`, the logP was 2.49.

For the compound `N#Cc1cc[n+]([O-])cc1`, the logP is -0.94.

As to `CC1CNC(=Nc2ncc([N+](=O)[O-])s2)N1C` (configuration not stated), the logP was found to be 2.02.

`COc1ccc(CC(C)N)c(OC)c1OC` (configuration not stated): the logP was 1.51.

The compound `CN(C)CCN(Cc1ccc(C(C)(C)C)cc1)c1ccccc1` gave a logP of 5.34.

In the case of `COc1cc(Cc2cnc(N)nc2N)cc(OC)c1C(=O)CS(C)(=O)=O`, the logP is -0.31.

In turn, `CS(=O)(=O)CCn1ccnc1[N+](=O)[O-]` came in with a logP of -1.3.

On to `Cc1cccc2nccc(=O)n12`, for which the logP came to 0.74.

Compound `NC(=O)NN=CCCc1ccccc1` returned a logP of 2.32.

On to `CC(=O)Nc1ccccc1C(C)=O`, for which the logP amounted to 1.5.

`CCCN(CC)CC(F)(F)F` returned a logP of 2.38.

The compound `CC(=O)Nc1c(C)cc(O)c(C)c1C` registered a logP of 0.75.

In the case of `COc1cc(Cc2cnc(N)nc2N)ccc1O`, the logP was determined as 0.64.

For `CN(Cc1ccccc1)N=Nc1ccc(C#N)cc1`, the logP was 3.82.

Consider `COc1ccc(Br)c(Cc2cnc(N)nc2N)c1`, for which the logP came to 2.

In the case of `CCCCCCCCCCCC[n+]1ccc(C)cc1C.[I-]`, the logP was determined as 1.41.

For `CC1=NS(=O)(=O)c2ccc(Cl)cc2N1`, the logP was determined as 1.21.

Compound `c1ccc(Nc2ccccn2)cc1` came in with a logP of 2.75.

In turn, `COc1nc(-c2ccccc2)c2ccccc2n1` showed a logP of 3.5.

Regarding `O=C(c1ccncc1)c1ccc(O)cc1`, the logP stood at 1.37.

On to `CCOP(=S)(OCC)Oc1ccccc1`, for which the logP stood at 3.46.

In turn, `CCOc1ccc2nc(S(=O)(=O)NC)sc2c1` came in with a logP of 2.59.

In turn, `COC(=O)c1c(OC)cc(Cc2cnc(N)nc2N)cc1OC` returned a logP of 0.95.

Turning to `CCCC12CC3CC(CC(N)(C3)C1)C2`, the logP is 3.76.

In the case of `CCOP(=S)(OCC)SCS(=O)C(C)(C)C` (configuration not stated), the logP came out at 2.21.

In turn, `Nc1nc(N)nc(-c2cc(Br)ccc2Cl)n1` yielded a logP of 2.04.

Consider `COc1cc(Cc2cnc(N)nc2N)cc(OC)c1I`, for which the logP was determined as 2.4.

For the compound `CC1=Nc2cc(N)c(Cl)cc2S(=O)(=O)N1`, the logP came to 0.63.

The compound `CC(C)(C)C1=Nc2ccc(Cl)cc2S(=O)(=O)N1` came in with a logP of 2.4.

On to `CCOc1ncnc(NS(=O)(=O)c2ccc(N)cc2)c1OC`, for which the logP came to 1.18.

On to `NC(=O)CCn1nnc2ccccc21`, for which the logP was 0.27.

Take `Cc1ccc(C(=N)c2ccc(C)cc2)cc1`: the logP came out at 3.71.

In turn, `O=C(CN1CCCCC1)Nc1ccc([N+](=O)[O-])cc1` yielded a logP of 2.72.

In the case of `ClC1C(Cl)C(Cl)C(I)C(Cl)C1Cl` (configuration not stated), the logP was 4.05.

As to `O=S(=O)(Nc1cccc(F)c1)C(F)(F)F`, the logP came out at 3.42.

Take `N#CC(=Cc1ccccc1)C(=O)Nc1ccccc1`: the logP was found to be 3.41.

Compound `CCCCC1=Nc2ccc(Cl)cc2S(=O)(=O)N1` showed a logP of 2.52.

As for `COc1cc(-n2c(=O)cc(C)n2C)ncn1`, the logP was 0.3.

Turning to `COP(=O)(NCC(C)C)SC` (configuration not stated), the logP is 0.97.

As to `C=CCOn1c(=O)[nH]c(C)c(Br)c1=O`, the logP was determined as 0.32.

Consider `COc1cc(S(=O)(=O)CCC(C)C)cc(OC)c1OC`, for which the logP was 2.12.

`CSCC1=C(C(=O)O)N2C(=O)C(NC(=O)Cc3cccs3)C2SC1` (configuration not stated) showed a logP of 1.01.

For the compound `COC(=O)C(C#N)=NNc1cccc(C(F)(F)F)c1`, the logP was determined as 3.78.

`CCN(CC)CC(=O)NC1c2ccccc2-c2ccccc21` displayed a lipophilicity (logP) of 3.64.

Compound `CCCCCCCC[n+]1ccc(C)c(C)c1.[I-]` displayed a logP of -0.41.

`O=C(CNC(=O)c1ccccc1)Oc1cccc(F)c1`: the log partition coefficient (logP) worked out at 2.58.

In the case of `COC(=O)C1CCCC(NC(=O)N(CCCl)N=O)C1` (configuration not stated), the logP was found to be 1.89.

For the compound `O=NN(CCCl)C(=O)NCCO`, the logP is 0.3.

`CN(Cc1ccccc1)N=Nc1ccc(C(N)=O)cc1` returned a logP of 2.76.

`Nc1ncnc2nc(-c3cccc([N+](=O)[O-])c3)[nH]c12` registered a logP of 1.93.

`CCNC1CC2CC1c1ccccc12` (configuration not stated) had a logP of 2.72.

`CCCCCCCCCCCCCC[n+]1ccccc1C.[I-]` had a lipophilicity (logP) of 2.27.

Turning to `COc1ccccc1N=NN(C)C`, the logP turned out to be 2.34.

In turn, `CCC(C)NC(=O)C=Cc1ccc(Cl)cc1` (configuration not stated) had a logP of 3.37.

`NNC(=O)c1ccc(O)cc1` showed a logP of -0.33.

Regarding `CON=CCCc1ccccc1`, the logP was 2.14.

Take `C=CCc1c(OCC)cc(Cc2cnc(N)nc2N)cc1OCC`: the logP came to 3.08.

In turn, `O=CNc1nccs1` gave a logP of 0.54.

Regarding `CNP(=O)(OC)Oc1ccc(C(C)(C)C)cc1` (configuration not stated), the logP stood at 2.71.

In turn, `COC1C(Cl)C(Cl)C(Cl)C(OC)C1OC` (configuration not stated) displayed a logP of 1.87.

As to `COC(=O)C(C#N)=NNc1cc(Cl)c(Cl)cc1Cl`, the logP was 5.15.

On to `CCOC(=O)c1cnc2cccc(C)n2c1=O`, for which the logP is 0.96.
